The values below come from patent publication US20100009935A1, “RESISTANCE-REPELLENT […] INHIBITORS” (priority 2002, published 2010).

Common to all, as to assay type: cell-based
One experiment deals with HIV-1 clinical isolate 7. Briefly: PI sensitivity of PI-resistant clinical isolate 7 in PHA-PBMC, p24. To be noted: Human immunodeficiency virus 1; isolate 7: L10I, L24I, L33F, E35D, H36I, H37S, N46L, I54V, R57K, I62V, L63P, A71V, G73S, V82A; PHA-PBMC, p24.
A further experiment has as its system HIV-1APV-P30. The experiment is described as follows: PI sensitivity of APV-selected HIV-1APV-P30 in MT-2 cells, MTT assay. Background: Tetrazolium dyes change colour on reduction, which living cells bring about.
Experiment [1] concerns HIV-1ERS104pre (wild-type clinical strain). The experiment is described as follows: PI sensitivity of wild-type clinical isolate in PHA-PBMC, p24.
For a further experiment, the system named is HIV-1Ba-L. The experiment is described as follows: microbe, parasite or virus in culture. To be noted: Human immunodeficiency virus 1, 168 h, PBNC (PHA-PBMC), p24 production, day 7, read-out: MEAN IC50 (μM) ± SDs. As to the method: (§1) The sensitivities of HIV-1LAI, HIV-1Ba-L, HIV-2EHO and the primary HIV-1 isolates against various drugs were determined as previously described with minor modifications (Shiraska et al., Proc. Natl. Acad. Sci. USA, 92, 2398-2402 (1995)).

The subject of the next experiment is HIV-1LAI. The experiment is described as follows: microbe, parasite or virus in culture. As to conditions: day 7, read-out: MEAN IC50 (μM) ± SDs. As to the method:
as §1

A further experiment deals with HIV-1 clinical isolate 8. Briefly: PI sensitivity of PI-resistant clinical isolate 8 in PHA-PBMC, p24. As to conditions: isolate 8: L10R, H37D, N46I, I62V, L63P, A71V, G73S, V77I, V82T, L90M, I93L, PHA-PBMC, p24.
A further experiment has as its system HIV-1UIC-P62. Briefly: PI sensitivity of compound 1-selected HIV-1UIC-P62 in MT-2 cells, MTT assay. To be noted: HIV-1UIC-P62 (L10F, A28S, M46I, I50V, A71V, N88D), day 7.
The next experiment concerns HIV-1 clinical isolate 5. Briefly: PI sensitivity of PI-resistant clinical isolate 5 in PHA-PBMC, p24. To be noted: isolate 5: L10I, K43T, N46L, I54L, L63P, A71T, V82A, L90N, D92K, PHA-PBMC, p24.
Experiment [2] has as its system highly cross-resistant HIV-1 strains derived from AIDS patients. As to conditions: for antiviral activity against patient isolates with multiple mutations compared with wild type HIV strains (in words): multidrug resistant patient isolates.
For the next experiment, the system named is HIV-1 clinical isolate 4. The experiment is described as follows: PI sensitivity of PI-resistant clinical isolate 4 in PHA-PBMC, p24. To be noted: isolate 4: L10I, V11I, T12E, I15V, L19I, B41K, H46L, L63P, A71T, V82A, L90M, PHA-PBMC, p24.
In the next experiment the test system is HIV-1 clinical isolate 3. The experiment is described as follows: PI sensitivity of PI-resistant clinical isolate 3 in PHA-PBMC, p24. To be noted: isolate 3: L10I, I15V, E35D, N37E, K45R, I54V, L63P, A71V, V82I, L90N, I93L, C95F, PHA-PBMC, p24.
The subject of the next experiment is HIV-2EHO. Briefly: Drug sensitivity of HIV-2EHO in MT-2 cells, MTT assay. To be noted: HT-2 (footnote: MT-2 cells), day 7, read-out: MEAN IC50 (μM) ± SDs. As for the experimental part:
as §1

The next experiment has as its system HIV-1 clinical isolate 6. The experiment is described as follows: PI sensitivity of PI-resistant clinical isolate 6 in PHA-PBMC, p24. To be noted: Human immunodeficiency virus 1; isolate 6: L10I, K14R, B41K, H46L, I54V, L63P, A71V, V82A, L90M, I93L; PHA-PBMC, p24.
The next experiment has as its system HIV-1 clinical isolate 2. The experiment is described as follows: PI sensitivity of PI-resistant clinical isolate 2 in PHA-PBMC, p24. As to conditions: isolate 2: L10I, I15V, K20R, N36I, H46L, I54V, K55R, I62V, L63P, K70D, V82A, L89N, PHA-PBMC, p24.
Another experiment deals with HIV-1 clinical isolate 1. The experiment is described as follows: PI sensitivity of PI-resistant clinical isolate 1 in PHA-PBMC, p24. As to conditions: Human immunodeficiency virus 1; isolate 1: L10I, K14R, L33I, N36I, H46I, F53L, K55R, I62V, L63P, A71V, G73S, V82A, L90M, I93L; PHA-PBMC, p24.
The subject of another experiment is HIV-1NL4-3. To be noted: Human immunodeficiency virus 1, MT2, 168 h; HIV-1NL4-3 (wild type), MT-2 cells, MTT assay, day 7.
[3] abbreviates: Human immunodeficiency virus 1, MT2, 168 h.
[4] abbreviates: Human immunodeficiency virus 1, read-out: IC50 μM.
Setting [5] is: Human immunodeficiency virus 1, 168 h, PBMC (PHA-PBMC), p24 production.
Where [6] appears, read: Human immunodeficiency virus 1, MT2, 168 h, HT-2 (footnote: MT-2 cells), MTT assay.
Setting [7] is: Human immunodeficiency virus 2, MT2, 168 h.

Where two headings read alike, the source gives them in different places.

The IC50 is the midpoint of a concentration-inhibition curve. `CC(C)CN(C[C@@H](O)[C@H](Cc1ccccc1)NC(=O)O[C@H]1CCOC1)S(=O)(=O)c1ccc(N)cc1` [APV, Amprenavir]: the IC50 was 490 nM in the experiment on HIV-1 clinical isolate 7; more than 1000 nM with HIV-1APV-P30 (setting [3]); 0.025 µM in experiment [1] (setting [4]); 0.023 ± 0.009 µM with HIV-1Ba-L; 0.017 ± 0.003 µM in the experiment on HIV-1LAI (setting [5]); 0.041 ± 0.01 µM in the experiment with HIV-1LAI (setting [6]). For the same compound, the IC50 in the experiment with HIV-1 clinical isolate 8 (Human immunodeficiency virus 1) was determined as 150 nM; in the experiment on HIV-1UIC-P62 (setting [3]), 830 nM; in the experiment on HIV-1 clinical isolate 5 (Human immunodeficiency virus 1), 670 nM; in the experiment with HIV-1 clinical isolate 4 (Human immunodeficiency virus 1), 310 nM; in the experiment with HIV-1 clinical isolate 3 (Human immunodeficiency virus 1) it was 260 nM; in the experiment with HIV-2EHO (setting [7]) it was 0.53 ± 0.03 µM. Also, the IC50 turned out to be 160 nM in the experiment on HIV-1 clinical isolate 6, 280 nM with HIV-1 clinical isolate 2 (Human immunodeficiency virus 1), 270 nM with HIV-1 clinical isolate 1 and 42 nM in the experiment on HIV-1NL4-3. Moreover, the “antiviral activity against patient isolates with multiple mutations compared with wild type HIV strains (in words)” value in experiment [2] is reported as “much less effective”.
As to `Cc1cn([C@H]2C[C@H](N=[N+]=[N-])[C@@H](CO)O2)c(=O)[nH]c1=O` [AZT, 3′-azido-2′,3′-dideoxythymidine], the IC50 with HIV-1Ba-L is 0.011 ± 0.007 µM; in the experiment on HIV-1LAI (setting [5]), 0.003 ± 0.0002 µM; in the experiment on HIV-1LAI (setting [6]) it was 0.024 ± 0.003 µM; in the experiment with HIV-2EHO (setting [7]), 0.003 ± 0.001 µM.
In the same order, the values of `Nc1ccn([C@@H]2CS[C@H](CO)O2)c(=O)n1` [Compound 3TC, LAMIVUDINE] are 0.054 ± 0.046 µM, 0.021 ± 0.018 µM, 0.66 ± 0.01 µM and 0.4 ± 0.25 µM.
Turning to `Cc1c(O)cccc1C(=O)N[C@@H](CSc1ccccc1)[C@H](O)CN1C[C@H]2CCCC[C@H]2C[C@H]1C(=O)NC(C)(C)C` [NFV, Nelfinavir], the IC50 in the experiment with HIV-1 clinical isolate 7 was more than 1000 nM; in the experiment on HIV-1APV-P30 (setting [3]), more than 1000 nM; in experiment [1] (setting [4]) it was 0.023 µM; in the experiment on HIV-1LAI (setting [5]), 0.009 ± 0.0003 µM; in the experiment with HIV-1LAI (setting [6]) it was 0.005 ± 0.002 µM; in the experiment with HIV-1 clinical isolate 8 (Human immunodeficiency virus 1) it was more than 1000 nM. The IC50 is 110 nM with HIV-1UIC-P62 (setting [3]); 410 nM in the experiment with HIV-1 clinical isolate 5 (Human immunodeficiency virus 1); 90 nM in the experiment on HIV-1 clinical isolate 4 (Human immunodeficiency virus 1); more than 1000 nM in the experiment with HIV-1 clinical isolate 3 (Human immunodeficiency virus 1); 0.02 ± 0.01 µM in the experiment with HIV-2EHO (setting [7]); more than 1000 nM in the experiment with HIV-1 clinical isolate 6. The IC50 in the experiment on HIV-1 clinical isolate 2 (Human immunodeficiency virus 1) is 330 nM; with HIV-1 clinical isolate 1, more than 1000 nM; with HIV-1NL4-3, 23 nM. Moreover, in [2], the “antiviral activity against patient isolates with multiple mutations compared with wild type HIV strains (in words)” value is recorded as “dramatically less potent”.
As for `COc1ccc(S(=O)(=O)N(CC(C)C)C[C@@H](O)[C@H](Cc2ccccc2)NC(=O)O[C@H]2CO[C@H]3OCC[C@H]32)cc1` [UIC-94003], the IC50 in the experiment with HIV-1APV-P30 (HIV-1APV-P30 (L10F, V32I, M46I, I54M, A71V, I84V), MT-2 cells, MTT assay, day 7, read-out: IC50) is 29 nM; in experiment [1] (wild type HIV-1ERS104pre (L63P), PHA-PBMC, p24, read-out: IC50) it was 0.0007 µM; in the experiment on HIV-1 clinical isolate 8, 1 nM; in the experiment on HIV-1UIC-P62, 21 nM; in the experiment with HIV-1 clinical isolate 5 it was 2.4 nM; in experiment [2] (eight highly PI-resistant clinical isolates, PHA-PBMC, read-out: IC50 values, range over all eight isolates), 0.5 to 5.5 nM. The IC50 in the experiment with HIV-1 clinical isolate 4 was 1.6 nM; in the experiment with HIV-1 clinical isolate 3 it was 1 nM; with HIV-2EHO, 0.0005 ± 7e-05 µM; in the experiment on HIV-1 clinical isolate 2, 1.3 nM. Moreover, the “antiviral activity against patient isolates with multiple mutations compared with wild type HIV strains (in words)” value in experiment [2] was “equivalent”.
With `OC[C@@H]1CC[C@H](n2cnc3c(O)ncnc32)O1` [ddI, 2′,3′-dideoxyinosine], the IC50 in the experiment with HIV-1Ba-L worked out at 1.5 ± 1.1 µM; in the experiment with HIV-1LAI (setting [5]), 0.62 ± 0.02 µM; in the experiment on HIV-1LAI (setting [6]), 3.4 ± 0.2 µM; in the experiment on HIV-2EHO (setting [7]) it was 2.8 ± 0.6 µM.
